Results published in patent publication US9611501B2, “Method and device for rapid detection of bacterial antibiotic resistance/susceptibility” (priority 2009, dated 2017).
≈ marks a conversion by molar mass, not a printed value.

Assays:
MRSA (MW2) = test: Oxacillin MIC quoted for the flow cell experiment; type: cell-based; settings: Staphylococcus aureus
[1] = test system: MSSA (Sanger 476) and MRSA (MW2) strains; test: Single-channel flow cell, immobilized cells under shear and lysostaphin stress with oxacillin, Sytox green staining; type: cell-based, Staphylococcus aureus; settings: 10 μg/mL oxacillin, 0.6 ng/mL lysostaphin, ~4200 s^-1 shear rate for 15 mins after 40 min pretreatment with lysostaphin and shear; 0.5 μM Sytox green
Protocol: The Staphylococcus aureus (MRSA strain MW2 and MSSA strain Sanger 476) were grown to log phase in Mueller-Hinton broth with 2% sodium chloride (MH2) and then immobilized on epoxide slides, which is a non-specific method for immobilizing bacteria and can be used instead of the adhesin mechanism. To immobilize the bacteria, 100 μL of culture was placed on the epoxide slide (Super-epoxy II, Telechem International) and incubated at 37° C. for 45 min in a humid environment. The immobilized cells were briefly rinsed with water and Block-it buffer (Telechem International) to quench any remaining un-reacted epoxide bonds.
On two separate slides, MSSA (Sanger 476) and MRSA (MW2) strains were immobilized. The cells were assembled in channels of ˜300 μm width and stained with 0.5 μM Sytox green in MH2. The immobilized cells were stressed with 0.6 ng/mL lysostaphin, ˜4200 s^−1 shear rate, and 10 μg/mL oxacillin for 15 mins after a 40 min pretreatment with lysostaphin and shear alone. The lysostaphin concentration was chosen to be lower than the MIC (˜1 ng/mL).

[2] = test system: MW2 methicillin resistant cells; test: 4-channel flow cell, Sytox Green fluorescence of immobilized cells; type: cell-based, Staphylococcus aureus; settings: oxacillin 50 μg/mL or lysostaphin 0.7 ng/mL alone, flow rate 1 mL/min, 0.5 μM Sytox Green
Protocol: (§1) This 4-channel arrangement was used to test a single strain of bacteria in the presence or absence of chemical stress (e.g., lysostaphin). The flow rate used in the channels was 1 mL/min and 0.5 μM Sytox Green was used to stain damaged or dying cells.
(§2) In each experiment, bacteria in two channels were exposed to 0.7 ng/mL lysostaphin (lyso) in the presence or absence of the antibiotic oxacillin (oxa; 50 μg/mL). The four experimental groups are as follows: (i) control (no oxa; no lyso), (ii) lyso only; (iii) oxa only, and (iv) lyso and oxa together.

[3] = test system: Sanger 476 methicillin sensitive cells; test: as above; type: cell-based, Staphylococcus aureus; settings: flow rate 1 mL/min, 0.5 μM Sytox Green
Protocol: as §1, §2

MSSA (Sanger 476) = test: Oxacillin MIC quoted for the flow cell experiment; type: cell-based; settings: Staphylococcus aureus
Staphylococcus aureus = test: Lysostaphin MIC quoted for the flow cell experiment; type: cell-based; settings: strain not stated; quoted to justify 0.6 ng/mL lysostaphin
strain MW2 = test: Classical microdilution broth MIC of lysostaphin; type: cell-based, Staphylococcus aureus; settings: MHB, 5×10^5 CFU/mL, overnight incubation at 37° C.
From the text: (§3) A classical microdilution broth method was used to determine the lysostaphin minimum inhibitory concentrations for strains MW2 and Sanger 476 (Jones, R. N., et al. Manual of clinical microbiology, A. Balows, J. W. J. Hausler, and H. J. Shadomy, Editors. 1985, American Society for Microbiology: Washington D.C. p. 972-977). Briefly, logarithmic-phase bacteria were cultivated in Mueller-Hinton cation-adjusted broth (MHB) and adjusted to a concentration of 1×10^6 CFU/mL. Sterile microtiter plates containing 100 μl of lysostaphin diluted in MHB were inoculated with 100 μl of the bacterial suspension to yield 5×10^5 CFU/mL. After overnight incubation at 37° C. overnight, the MIC for both strains was 0.06 μg/mL.

strain Sanger 476 = test: Classical microdilution broth MIC of lysostaphin; type: cell-based, Staphylococcus aureus; settings: MHB, 5×10^5 CFU/mL, overnight incubation at 37° C.
From the text: as §3

## Cc1onc(-c2ccccc2)c1C(=O)N[C@@H]1C(=O)N2[C@@H]1SC(C)(C)[C@@H]2C(=O)O [oxacillin]
MRSA (MW2)
  MIC: > 16 µg/mL
[1]
  cell death, MSSA compared with MRSA: More MSSA cells died during the course of the experiment than MRSA cells
[2]
  fluorescence compared to control MW2 cells: no substantial increase
[3]; oxacillin 50 μg/mL with or without 0.7 ng/mL lysostaphin
  time point at which fluorescence was increased: approximately 20 min
MSSA (Sanger 476)
  MIC: 0.5 µg/mL (≈ 1.25 µM)

## lysostaphin
Staphylococcus aureus
  MIC: ~0.001 µg/mL
[2]
  fluorescence compared to control MW2 cells: small increase
[3]; 0.7 ng/mL lysostaphin
  level of fluorescence compared with the control channel: not substantially different
Strain MW2
  minimum inhibitory concentration (MIC): 0.06 µg/mL
Strain Sanger 476
  minimum inhibitory concentration (MIC): 0.06 µg/mL
